Measured values published in publication PMC7822874, “Chemoprotective antimalarials identified through quantitative high-throughput screening of Plasmodium blood and liver stage parasites” (Scientific Reports, 2021).
Values joined by “and” are separate entries in the source; they are usually repeats but may differ in a detail not shown here. Equal entries are not always repeated.

Legend:
[1] = system: T1, Plasmodium falciparum Dd2-attB (parental line), asexual blood stages; assay: microbe, parasite or virus in culture; set-up: replicate k of 3 (each line is one of three independent assays; the three lines of one compound and parasite line follow each other); conditions: n = 1; for Individual replicates / Log AC50 (M): 72 h; for AC50: Plasmodium falciparum, DD2, 72 h, read-out: Individual replicates / Log AC50 (converted)
T1 construct: Dd2-attB, the isogenic parental line
In short: (§1)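 We compare activity in parasites carrying fumarate-using yeast DHODH with that in the parental line; mETC or parasite DHODH inhibitors are bypassed by this enzyme. Data come from three independent assays, analysed by two-sided Student's t-tests.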

[2] = system: T2, Plasmodium falciparum Dd2-attB-ScDHODH (transgenic line expressing yeast DHODH), asexual blood stages; assay: organism not typed; set-up: replicate k of 3 (each line is one of three independent assays; the three lines of one compound and parasite line follow each other)
T2 construct: Dd2-attB-ScDHODH, the transgenic line that expresses yeast DHODH
In short: as §1

[3] = 72 h; n = 1; read-out: Individual replicates / Log AC50 (converted)

| Structure (SMILES) | Individual replicates / Log AC50 (M) [1] | AC50 [1] | Individual replicates / Log AC50 (M) ([2]; 72 h, n = 1) | AC50 [2, 3] | Individual replicates / Log AC50 (M) ([2]; 72 h; n = 1) |
| --- | --- | --- | --- | --- | --- |
| CCCCOC(=O)c1ccnc2cc(-c3nc4ccccc4[nH]3)sc12 [NCGC00482448-01] | -5.7486 Log AC50 (M) and -5.6986 Log AC50 (M) | 2 µM | -5.5986 Log AC50 (M) and -5.6986 Log AC50 (M) | 2 µM |  |
| CN1CCC(CCOC(c2cc3nccc(C(=O)O)c3[nH]2)c2ccccc2Cl)C1 (centres unmarked) [NCGC00481023-01] |  | 12.6 µM |  | 8.94 µM |  |
| Cc1ccc2nc(-c3ccccn3)c(Nc3ccccc3C)n2c1 [NCGC00106087-03] | -5.3486 Log AC50 (M) and -5.2486 Log AC50 (M) | 4.48 µM | -5.1986 Log AC50 (M) and -5.1486 Log AC50 (M) | 5.64 µM |  |
| O=C(O)c1ccc(O)c2ncc(NC3CCNC3)cc12 (centres unmarked) [NCGC00241039-01] | -4.7486 Log AC50 (M) and -4.7986 Log AC50 (M) | 20 µM | -4.8486 Log AC50 (M) and -4.6486 Log AC50 (M) | 20 µM |  |
| CCOC(=O)C1(Cc2ccc(Cl)cc2)CCN(C(=O)c2cc(C)oc2C)CC1 [NCGC00426139-02] | -5.0986 Log AC50 (M) | 8.94 µM | -4.8986 Log AC50 (M) and -4.7986 Log AC50 (M) | 15.9 µM |  |
| CN(C)c1ccc(-c2nc(-c3ccccc3O)n(Cc3ccccc3)n2)cc1 [NCGC00388637-01] | -6.0986 Log AC50 (M) | 0.797 µM | -5.6486 Log AC50 (M) and -6.0486 Log AC50 (M) and -6.1486 Log AC50 (M) |  |  |
| O=C(O)c1ccnc(-n2ncc(C(OCCN3CCCCC3)c3cccc(-c4ccccc4)c3)c2-c2cccc(-c3ccccc3)c2)c1 (centres unmarked) [NCGC00487052-02] | -5.3986 Log AC50 (M) and -5.4486 Log AC50 (M) and -5.3486 Log AC50 (M) |  | -5.1486 Log AC50 (M) and -5.2486 Log AC50 (M) |  |  |
| CC(C)OC(=O)c1ccnc2cc(C(OCCN3CCCCC3)c3ccccc3Cl)sc12 (centres unmarked) [NCGC00481510-01] | -5.1986 Log AC50 (M) | 7.1 µM | -5.0986 Log AC50 (M) | 8.94 µM |  |
| COc1ccc(NC2=C(c3ccc(C(F)(F)F)cc3)C(=O)c3ccccc32)cc1 [NCGC00107310-02] | -6.3986 Log AC50 (M) and -6.2986 Log AC50 (M) and -6.5486 Log AC50 (M) |  | -5.1486 Log AC50 (M) and -5.2986 Log AC50 (M) |  |  |
| Cc1nn2c(c1-c1ccccc1-c1ccccc1)N(Cc1ccc(C(=O)O)s1)CCC2 [NCGC00420478-02] | -4.8986 Log AC50 (M) and -4.7986 Log AC50 (M) | 17.8 µM | -4.7486 Log AC50 (M) | 14.2 µM |  |
| O=C(NC1=CC(=O)c2ccccc2C1=O)c1ccccc1 [NCGC00357425-01] | -5.5986 Log AC50 (M) and -5.7986 Log AC50 (M) and -5.3486 Log AC50 (M) |  | -5.6486 Log AC50 (M) (2×) and -5.2986 Log AC50 (M) |  |  |
| COC(=O)c1ccnc2cc(C(OCCC3CCCN3C)c3ccccc3Cl)[nH]c12 (centres unmarked) [NCGC00479019-01] | -5.1986 Log AC50 (M) and -5.1486 Log AC50 (M) | 5.03 µM | -5.2986 Log AC50 (M) and -5.1486 Log AC50 (M) | 7.1 µM |  |
| c1ccc(CCn2nc(-c3cnccn3)nc2CCCN2CCCCC2)cc1 [NCGC00390064-01] | -4.9986 Log AC50 (M) and -5.1486 Log AC50 (M) and -4.8486 Log AC50 (M) |  | -4.7986 Log AC50 (M) and -5.0986 Log AC50 (M) and -4.7486 Log AC50 (M) |  |  |
| Oc1ccc(CNc2cccc(F)c2F)c2cccnc12 [NCGC00183376-01] | -4.7486 Log AC50 (M) | 17.8 µM |  | 17.8 µM | -4.7486 Log AC50 (M) |
| Cc1ccc(C(CCN2CCCCC2)c2cc3cccc(C(N)=O)c3[nH]2)cc1 (centres unmarked) [NCGC00389183-01] | -5.2486 Log AC50 (M) | 5.03 µM | -5.3486 Log AC50 (M) and -5.0986 Log AC50 (M) | 5.03 µM |  |
| Cc1nn2c(c1-c1ccccc1-c1ccccc1)N(CC1CC1)CCC2 [NCGC00420435-02] | -4.7986 Log AC50 (M) and -4.8486 Log AC50 (M) | 14.2 µM | -4.7486 Log AC50 (M) and -4.8486 Log AC50 (M) | 15.9 µM |  |
| O=C(NCCC12CCCN1CCC2)c1cccc(-c2cc(O)c3ncccc3c2)c1 [NCGC00249386-01] | -4.7986 Log AC50 (M) | 17.8 µM | -4.6986 Log AC50 (M) | 17.8 µM |  |
| CC1CN(c2cnc3c(O)ccc(C(=O)O)c3c2)CCN1Cc1ccccc1 (centres unmarked) [NCGC00249383-01] | -4.7486 Log AC50 (M) and -4.8486 Log AC50 (M) | 17.8 µM | -4.7986 Log AC50 (M) | 17.8 µM |  |
| CC(C)OC(=O)c1ccnc2cc(C(OCCN3CCCCC3)c3cccc(N)c3)sc12 (centres unmarked) [NCGC00488684-01] | -5.1986 Log AC50 (M) and -5.1486 Log AC50 (M) | 7.1 µM | -5.0986 Log AC50 (M) | 12.6 µM |  |
| COC(=O)c1ccc(O)c2ncc(NC3CCNCC3)cc12 [NCGC00241038-01] | -5.1986 Log AC50 (M) and -5.0486 Log AC50 (M) | 8.94 µM | -4.8986 Log AC50 (M) and -5.0986 Log AC50 (M) | 7.1 µM |  |
| CC(c1ccccc1)N1CCN(c2cnc3c(O)ccc(C(=O)O)c3c2)CC1 (centres unmarked) [NCGC00247745-01] | -4.8486 Log AC50 (M) and -4.7486 Log AC50 (M) | 15.9 µM | -4.7986 Log AC50 (M) and -4.7486 Log AC50 (M) | 17.8 µM |  |
| Cc1ccc(CN2CCN(c3cnc4c(O)ccc(C(=O)O)c4c3)CC2)cc1 [NCGC00249379-01] | -4.7986 Log AC50 (M) | 17.8 µM | -4.8486 Log AC50 (M) and -4.7486 Log AC50 (M) | 15.9 µM |  |
| Cc1ccc(C)c(NC2=C(c3ccc(C(F)(F)F)cc3)C(=O)c3ccccc32)c1 [NCGC00107302-02] | -5.8486 Log AC50 (M) and -5.6486 Log AC50 (M) (2×) |  | -5.0486 Log AC50 (M) and -4.9486 Log AC50 (M) and -4.9986 Log AC50 (M) |  |  |
| Cc1ccnc(NCc2ccc(O)c3ncccc23)c1 [NCGC00241032-01] | -4.8486 Log AC50 (M) and -4.7486 Log AC50 (M) | 17.8 µM | -5.0486 Log AC50 (M) | 14.2 µM |  |
| Oc1ccc(CNc2ccccc2Cl)c2cccnc12 [NCGC00184891-01] | -4.6986 Log AC50 (M) | 15.9 µM | -4.7486 Log AC50 (M) | 14.2 µM |  |
| Cc1cccc(CN2CCCn3nc(C)c(-c4ccccc4OCc4ccccc4)c32)n1 [NCGC00499716-01] | -4.8986 Log AC50 (M) and -4.7486 Log AC50 (M) | 15.9 µM | -4.8486 Log AC50 (M) | 12.6 µM |  |
| CCOc1ccc(NC(=O)c2c(NCc3cccnc3)sc3c2CCCC3)cc1 [NCGC00140582-02] | -5.3486 Log AC50 (M) and -5.2986 Log AC50 (M) | 5.64 µM | -5.2486 Log AC50 (M) and -5.1486 Log AC50 (M) | 6.33 µM |  |
| CCOC(=O)c1ccnc(-n2ncc(C(OCCN3CCCCC3)c3ccccc3)c2-c2ccccc2Cl)c1 (centres unmarked) [NCGC00484789-01] | -5.0486 Log AC50 (M) and -4.9986 Log AC50 (M) | 8.94 µM | -5.0486 Log AC50 (M) and -4.9486 Log AC50 (M) | 14.2 µM |  |
| Oc1ccc(CNc2cccc(F)c2)c2cccnc12 [NCGC00184892-01] | -4.7486 Log AC50 (M) and -4.8486 Log AC50 (M) | 12.6 µM | -4.7486 Log AC50 (M) | 17.8 µM |  |
| COC(=O)c1ccc(O)c2ncc(-c3ccc(C(=O)N4CCN(C)CC4)cc3)cc12 [NCGC00189505-01] | -5.2486 Log AC50 (M) and -5.0486 Log AC50 (M) | 5.03 µM | -4.8986 Log AC50 (M) and -5.1486 Log AC50 (M) | 6.33 µM |  |
